Data published in US20220105058A1, “USE OF 3-O-SULFAMATE-16,16-DIMETHYL-D-HOMOEQUILENIN TO TREAT ONCOLOGICAL DISEASES” (priority 2018, published 2022).
Marks after values point to notes of the source that are not given here.

Legend:
[1] = test system: uterine body without horns; assay: uterine body weight (hormonal effect) on Day 28; type: in vivo, FVB mice transgenic for HER-2/neu; settings: Tamoxifen 4 mg/kg, Day 28
Procedure: To estimate the hormonal effect of the medicament, the weight of uterine body without horns was measured on Day 28 of the observation period (Table 9).

[2] = test system: Breast tumors (BT) in female FBV/N mice transgenic for HER-2/neu; assay: antitumor activity in mice with HER-2/neu breast tumors; type: in vivo, FVB mice transgenic for HER-2/neu; settings: Tamoxifen 4 mg/kg
Text: The age of animals at the beginning of the study was 21-41 weeks and weight was 25-30 g.
The control groups were given the olive oil (placebo).
TGI=(Vctrl−Vexp)/Vctrl×100(%),

Structure (SMILES): CC/C(=C(\c1ccccc1)c1ccc(OCCN(C)C)cc1)c1ccccc1 [Tamoxifen]
- Uterine body weight ([1]; All mice): 28 ± 1 mg
- Uterine body weight ([1]; estrus (E-9)): 28 ± 1 mg
- Average volume of new tumors at the end of observation period (M) [2]: 0.20 cm^3
- average total volume of tumors, % changes from baseline ([2]; 28 days): 338%
- average volume of tumors, % changes from baseline ([2]; 28 days): 338%
- TGI (average total tumor volume) ([2]; Day 0): 44%
- TGI (average tumor volume) ([2]; Day 0): 24%
- average total volume of tumors in mice (M) ([2]; Day 0): 1.26 cm^3
- average volume of tumors (M) ([2]; Day 0): 0.29 cm^3
- TGI (average total tumor volume) ([2]; Day 7): 33%
- TGI (average tumor volume) ([2]; Day 7): 8%
- average total volume of tumors in mice (M) ([2]; Day 7): 2.01 cm^3
- average volume of tumors (M) ([2]; Day 7): 0.46 cm^3
- TGI (average total tumor volume) ([2]; Day 14): 32%
- TGI (average tumor volume) ([2]; Day 14): 7%
- average total volume of tumors in mice (M) ([2]; Day 14): 2.84 cm^3
- average volume of tumors (M) ([2]; Day 14): 0.65 cm^3
- TGI (average total tumor volume) ([2]; Day 21): 36%
- TGI (average tumor volume) ([2]; Day 21): 12%
- average total volume of tumors in mice (M) ([2]; Day 21): 3.23 cm^3
- average volume of tumors (M) ([2]; Day 21): 0.75 cm^3
- TGI (average total tumor volume) ([2]; Day 28): 5%
- TGI (average tumor volume) ([2]; Day 28): −31%
- average total volume of tumors in mice (M) ([2]; Day 28): 5.52 cm^3
- average volume of tumors (M) ([2]; Day 28): 1.27* cm^3
- Total number of new tumors ([2]; end of experiment): 32
- frequency of tumor stabilizations ([2]; end of observation): 3%
